{"source": "patent US20040086904A1", "about": "“Screening assay for cotranslational translocation interfering compounds” (priority 2001, published 2004)", "assay_in_all_cases": "SP-SEAP assay, secretion of SEAP into the medium", "key": {"SEAP": {"system": "SEAP", "format": "cell-based, human", "details": "transiently transfected cells, increasing concentrations", "method": "Cell Culture and Transient Transfections HEK293 cells are maintained in Dulbeccos' modified Eagle's medium (DMEM, Gibco-BRL), supplemented with 10% heat-inactivated fetal calf serum (FCS, Bio-Whittaker) and 100 Units/ml each of penicillin (BC) and streptomycin (Gibco-BRL) at 37° in a 5% humidified CO2 incubator. HUVEC cells are cultured in endothelial cell basal medium (EBM, Clonetics Corp.) supplemented with 10% FCS, 5×10^−4 M dibutyryl cAMP (Sigma), 1 μg/ml hydrocortisone (Sigma) and 10 ng/ml human EGF (Boehringer) at 37° in a 5% humidified CO2 incubator. VCAM-1 production is stimulated by incubation with 100U/ml TNF-α for ca. 8 hours. For transient transfection, HEK293 cells are seeded into 6-well or 24-well cell culture dishes at a density of 6×10^5 cells/well or 1.5×10^5 cells/well, respectively, the day prior to transfection and grown to 50-70% confluency. […]\nHuman placental SEAP levels in cell supernatants are determined using either a fluorescence-based assay or an assay that measures light absorbance at 405 nm accompanying hydrolysis of pNPP according to the method described (Berger et al., 1988). […] 20 μl of 120 mM pNPP in 1x SEAP buffer prewarmed to 37° is added and the change in absorbance at 37° is plotted. […] For determination of SEAP levels by a fluorescence-based assay the Atto Phos AP Fluorescent Substrate Sysem (Promega) is used according to the manufacturer's instructions. […]"}, "[1]": {"system": "IL-12p40 SP-SEAP fusion construct", "format": "cell-based", "details": "transient overexpression in mammalian cells, increasing concentrations", "method": "(§1) Cell Culture and Transient Transfections HEK293 cells are maintained in Dulbeccos' modified Eagle's medium (DMEM, Gibco-BRL), supplemented with 10% heat-inactivated fetal calf serum (FCS, Bio-Whittaker) and 100 Units/ml each of penicillin (BC) and streptomycin (Gibco-BRL) at 37° in a 5% humidified CO2 incubator. HUVEC cells are cultured in endothelial cell basal medium (EBM, Clonetics Corp.) supplemented with 10% FCS, 5×10^−4 M dibutyryl cAMP (Sigma), 1 μg/ml hydrocortisone (Sigma) and 10 ng/ml human EGF (Boehringer) at 37° in a 5% humidified CO2 incubator. VCAM-1 production is stimulated by incubation with 100U/ml TNF-α for ca. 8 hours. For transient transfection, HEK293 cells are seeded into 6-well or 24-well cell culture dishes at a density of 6×10^5 cells/well or 1.5×10^5 cells/well, respectively, the day prior to transfection and grown to 50-70% confluency. Cells are transfected with 2 μg or 1 μg of plasmid DNA, respectively, using the SuperFect reagent (Qiagen) according to the supplier's recommendations. Cells are incubated either without or with addition of a candidate compound, respectively, at concentrations indicated for ca. 24 to 48 hours. For proteasome inhibition experiments Lactacystin (Calbiochem) is added at a final concentration of 5 μM alone or together with a candidate compound 5 hours post-transfection, respectively.\n(§2) Human placental SEAP levels in cell supernatants are determined using either a fluorescence-based assay or an assay that measures light absorbance at 405 nm accompanying hydrolysis of pNPP according to the method described (Berger et al., 1988). Briefly, a 500 μl aliquot of medium is removed from the culture dish, clarified for 1 min at 14,000×g and heated for 5 minutes at 65°. An aliquot of medium (10 μl-100 μl) is adjusted to 1x SEAP buffer (1.0 M diethanolamine, pH 9.8, 0.5 mM MgCl2, 10 mM L-homoarginine) in a final volume of 200 μl in a 96-well flat bottom culture dish (Nunc) and prewarmed to 37° for 10 min. 20 μl of 120 mM pNPP in 1x SEAP buffer prewarmed to 37° is added and the change in absorbance at 37° is plotted. Heating step and inclusion of L-homoarginine in the assay buffer inhibit any endogenous phophatase activity. For determination of SEAP levels by a fluorescence-based assay the Atto Phos AP Fluorescent Substrate Sysem (Promega) is used according to the manufacturer's instructions.\n(§3) To further validate the novel assay system claimed in the present invention we generated SP-SEAP fusion constructs similarily to the method as described in example 1, but using the SP of other protein targets playing critical roles in various disease processes and tested their functionality by transient overexpression in mammalian cells in the absence or presence of increasing concentrations of compound CP as described (FIG. 7). […]"}, "[2]": {"system": "IL4 SP-SEAP fusion construct", "format": "cell-based", "details": "transient overexpression in mammalian cells, increasing concentrations", "method": "as §1, §2, §3"}, "[3]": {"system": "MCP-1 SP-SEAP fusion construct", "format": "cell-based", "details": "transient overexpression in mammalian cells, increasing concentrations", "method": "as §1, §2, §3"}, "VEGF SP-SEAP construct": {"system": "VEGF SP-SEAP construct", "format": "cell-based", "details": "transient overexpression in mammalian cells, increasing concentrations, dose dependent, compared to VCAM-1 SP-SEAP", "method": "as §1, §2, §3"}}, "data": [{"smiles": "CCCCC(C)CC1NC(=O)C(Cc2cn(OC)c3ccccc23)N(C)C(=O)C(CC(C)C)NC(=O)C(CC(C)C)N(C)C(=O)C(CC(C)CCCC)NC(=O)C(CCC(=O)OCCC)OC(=O)C(C)N(C)C1=O", "note": "(centres unmarked) [CP]", "values": [{"measurement": "sensitivity of SEAP secretion to the compound", "setting": "SEAP", "result": "compound-insensitive"}, {"measurement": "sensitivity of SEAP secretion to the compound", "setting": "[1]", "result": "insensitive"}, {"measurement": "sensitivity of SEAP secretion to the compound", "setting": "[2]", "result": "insensitive"}, {"measurement": "sensitivity of SEAP secretion to the compound", "setting": "[3]", "result": "insensitive"}, {"measurement": "sensitivity of SEAP secretion to the compound", "setting": "VEGF SP-SEAP construct", "result": "sensitive"}]}]}
